Active and inactive are the calls of the source. The rule behind the calls is not given here.
What was measured:
KYSE-450 [1] = assay: Induction of apoptosis in human KYSE-450 cells assessed as caspase-3 cleavage at 80 to 100 nM measured after 48 hrs by western blot analysis; type: functional, cell-based; conditions: dose 80-100 nM
KYSE-30 [2] = assay: Induction of mitochondrial membrane potential loss in human KYSE-30 cells assessed as upregulation of NOXA protein at 80 to 100 nM measured after 48 hrs by western blot analysis; type: functional, cell-based; conditions: dose 80-100 nM
KYSE-450 [3] = assay: Antiproliferative activity against human KYSE-450 cells assessed as cell growth inhibition measured after 48 hrs by CCK8 assay; type: functional, cell-based; conditions: KYSE-450, 48 h
HCT-116 = assay: Antiproliferative activity against human HCT-116 cells assessed as cell growth inhibition measured after 48 hrs by CCK8 assay; type: functional, cell-based; conditions: HCT-116, 48 h
Tubulin (Homo sapiens) [4] = target: T1, Tubulin (Homo sapiens) (UniProt P68371+Q9H4B7+P0DPH7+P68366+Q13509+Q71U36+P04350+Q3ZCM7+P07437+P68363+Q9BQE3+Q6PEY2+Q13885+Q9BVA1+Q9BUF5); assay: Inhibition of tubulin polymerization in human KYSE-30 cells assessed as microtubule assembly at 0.1 uM measured after 48 hrs by immunofluorescence assay; type: cell-based
Tubulin (Homo sapiens) [5] = target: T1, Tubulin (Homo sapiens); assay: Inhibition of tubulin polymerization in human KYSE-450 cells assessed as microtubule assembly at 0.1 uM measured after 48 hrs by immunofluorescence assay; type: cell-based
Tubulin (Homo sapiens) [6] = target: T1, Tubulin (Homo sapiens); assay: Inhibition of tubulin polymerization in human KYSE-30 cells assessed as weakening of beta tubulin at 100 to 300 nM for 2 hrs by EBI alkylate competition assay; type: cell-based; conditions: dose 100-300 nM
Tubulin (Homo sapiens) [7] = target: T1, Tubulin (Homo sapiens); assay: Inhibition of tubulin polymerization in human KYSE-450 cells assessed as weakening of beta tubulin at 100 to 300 nM for 2 hrs by EBI alkylate competition assay; type: cell-based; conditions: dose 100-300 nM
KYSE-450 [8] = assay: Antiproliferative activity against human KYSE-450 cells assessed as cell viability measured after 48 hrs by CCK8 assay; type: functional, cell-based; conditions: KYSE-450, 48 h
KYSE-450 [9] = assay: Antiproliferative activity against human KYSE-450 cells assessed as inhibition of colony formation at 40 to 60 nM for 7 days by crystal violet staining based analysis; type: functional, cell-based; conditions: dose 40-60 nM, time 7.0 day
KYSE-450 [10] = assay: Induction of cell cycle arrest in human KYSE-450 cells assessed as accumulation at G2/M phase at 100 nM measured after 48 hrs by flow cytometry analysis (reference value: 7.04333 %); type: functional
KYSE-450 [11] = assay: Down regulation of CDK1 protein expression in human KYSE-450 cells at 80 to 100 nM for 48 hrs by western blot analysis; type: functional, cell-based; conditions: dose 80-100 nM
KYSE-30 [12] = assay: Down regulation of CDC25C protein expression in human KYSE-30 cells at 80 to 100 nM for 48 hrs by western blot analysis; type: functional, cell-based; conditions: dose 80-100 nM
KYSE-450 [13] = assay: Down regulation of CDC25C protein expression in human KYSE-450 cells at 80 to 100 nM for 48 hrs by western blot analysis; type: functional, cell-based; conditions: dose 80-100 nM
KYSE-30 [14] = assay: Down regulation of p-wee1 protein expression in human KYSE-30 cells at 80 to 100 nM for 48 hrs by western blot analysis; type: functional, cell-based; conditions: dose 80-100 nM
KYSE-30 [15] = assay: Up regulation of p-Histone H3 protein expression in human KYSE-30 cells at 80 to 100 nM for 48 hrs by western blot analysis; type: functional, cell-based; conditions: dose 80-100 nM
KYSE-450 [16] = assay: Up regulation of p-Histone H3 protein expression in human KYSE-450 cells at 80 to 100 nM for 48 hrs by western blot analysis; type: functional, cell-based; conditions: dose 80-100 nM
KYSE-30 [17] = assay: Induction of apoptosis in human KYSE-30 cells assessed as apoptotic cells at 80 nM measured after 48 hrs by annexin-V-FITC and PI staining based flow cytometry analysis (reference value: 8.1667 %); type: functional
KYSE-450 [18] = assay: Induction of apoptosis in human KYSE-450 cells assessed as apoptotic cells at 80 nM measured after 48 hrs by annexin-V-FITC and PI staining based flow cytometry analysis (reference value: 8.1667 %); type: functional
KYSE-30 [19] = assay: Induction of apoptosis in human KYSE-30 cells assessed as apoptotic cells at 100 nM measured after 48 hrs by annexin-V-FITC and PI staining based flow cytometry analysis (reference value: 8.1667 %); type: functional
KYSE-450 [20] = assay: Induction of apoptosis in human KYSE-450 cells assessed as apoptotic cells at 100 nM measured after 48 hrs by annexin-V-FITC and PI staining based flow cytometry analysis (reference value: 8.1667 %); type: functional
KYSE-30 [21] = assay: Induction of apoptosis in human KYSE-30 cells assessed as caspase-3 cleavage at 80 to 100 nM measured after 48 hrs by western blot analysis; type: functional, cell-based; conditions: dose 80-100 nM
KYSE-30 [22] = assay: Induction of mitochondrial membrane potential loss in human KYSE-30 cells assessed as upregulation of Bax protein at 80 to 100 nM measured after 48 hrs by western blot analysis; type: functional, cell-based; conditions: dose 80-100 nM
KYSE-450 [23] = assay: Induction of mitochondrial membrane potential loss in human KYSE-450 cells assessed as upregulation of Bax protein at 80 to 100 nM measured after 48 hrs by western blot analysis; type: functional, cell-based; conditions: dose 80-100 nM
KYSE-450 [24] = assay: Induction of mitochondrial membrane potential loss in human KYSE-450 cells assessed as upregulation of NOXA protein at 80 to 100 nM measured after 48 hrs by western blot analysis; type: functional, cell-based; conditions: dose 80-100 nM
KYSE-30 [25] = assay: Induction of mitochondrial membrane potential loss in human KYSE-30 cells assessed as downregulation of Bcl-2 protein at 80 to 100 nM measured after 48 hrs by western blot analysis; type: functional, cell-based; conditions: dose 80-100 nM
KYSE-30 [26] = assay: Induction of mitochondrial membrane potential loss in human KYSE-30 cells assessed as decrease in XIAP level at 80 to 100 nM measured after 48 hrs by western blot analysis; type: functional, cell-based; conditions: dose 80-100 nM
KYSE-450 [27] = assay: Induction of mitochondrial membrane potential loss in human KYSE-450 cells assessed as decrease in XIAP level at 80 to 100 nM measured after 48 hrs by western blot analysis; type: functional, cell-based; conditions: dose 80-100 nM
KYSE-30 [28] = assay: Induction of mitochondrial membrane potential loss in human KYSE-30 cells assessed as Bak expression at 80 to 100 nM measured after 48 hrs by western blot analysis; type: functional, cell-based; conditions: dose 80-100 nM
KYSE-30 [29] = assay: Induction of mitochondrial membrane potential loss in human KYSE-30 cells assessed as Bcl-xL expression at 80 to 100 nM measured after 48 hrs by western blot analysis; type: functional, cell-based; conditions: dose 80-100 nM
KYSE-450 [30] = assay: Induction of mitochondrial membrane potential loss in human KYSE-450 cells assessed as Bcl-xL expression at 80 to 100 nM measured after 48 hrs by western blot analysis; type: functional, cell-based; conditions: dose 80-100 nM
KYSE-450 [31] = assay: Induction of mitochondrial membrane potential loss in human KYSE-450 cells assessed as Mcl-1 expression at 80 to 100 nM measured after 48 hrs by western blot analysis; type: functional, cell-based; conditions: dose 80-100 nM
KYSE-30 [32] = assay: Antiproliferative activity against human KYSE-30 cells assessed as cell viability measured up to 48 hrs by CCK8 assay; type: functional, cell-based; conditions: time hrs <=48, TDE = time-dependent effect
KYSE-450 [33] = assay: Antiproliferative activity against human KYSE-450 cells assessed as cell viability measured up to 48 hrs by CCK8 assay; type: functional, cell-based; conditions: time hrs <=48, TDE = time-dependent effect
KYSE-30 [34] = assay: Induction of apoptosis in human KYSE-30 cells assessed as PARP cleavage at 80 to 100 nM measured after 48 hrs by western blot analysis; type: functional, cell-based; conditions: dose 80-100 nM
KYSE-450 [35] = assay: Induction of apoptosis in human KYSE-450 cells assessed as PARP cleavage at 80 to 100 nM measured after 48 hrs by western blot analysis; type: functional, cell-based; conditions: dose 80-100 nM

IC50 (HCT-116): 0.128 µM
inhibition (Tubulin (Homo sapiens) [4]): Active
inhibition (Tubulin (Homo sapiens) [5]): Active
inhibition (Tubulin (Homo sapiens) [6]): Active
inhibition (Tubulin (Homo sapiens) [7]): Active
SMILES: COc1ccc(CN(C(=O)CSC(=S)N2CCN(C(=O)OC(C)(C)C)CC2)c2cc(OC)c(OC)c(OC)c2)cc1O
Activity (KYSE-450 [1]): Active
Activity (KYSE-30 [2]): Dose-Dependent Effect
IC50 (KYSE-450 [3]): 0.076 µM
IC50 (KYSE-450 [8]): 0.076 µM
inhibition (KYSE-450 [9]): Active
Activity (KYSE-450 [10]): 80.8933%
Activity (KYSE-450 [11]): Dose-Dependent Effect
Activity (KYSE-30 [12]): Dose-Dependent Effect
Activity (KYSE-450 [13]): Dose-Dependent Effect
Activity (KYSE-30 [14]): Dose-Dependent Effect
Activity (KYSE-30 [15]): Dose-Dependent Effect
Activity (KYSE-450 [16]): Dose-Dependent Effect
Activity (KYSE-30 [17]): 23.8%
Activity (KYSE-450 [18]): 34.0333%
Activity (KYSE-30 [19]): 38.633%
Activity (KYSE-450 [20]): 57.3667%
Activity (KYSE-30 [21]): Active
Activity (KYSE-30 [22]): Dose-Dependent Effect
Activity (KYSE-450 [23]): Dose-Dependent Effect
Activity (KYSE-450 [24]): Dose-Dependent Effect
Activity (KYSE-30 [25]): Dose-Dependent Effect
Activity (KYSE-30 [26]): Dose-Dependent Effect
Activity (KYSE-450 [27]): Dose-Dependent Effect
Activity (KYSE-30 [28]): inactive
Activity (KYSE-30 [29]): inactive
Activity (KYSE-450 [30]): inactive
Activity (KYSE-450 [31]): inactive
inhibition (KYSE-30 [32]): Tde
inhibition (KYSE-450 [33]): Tde
Activity (KYSE-30 [34]): Active
Activity (KYSE-450 [35]): Active

Source: ChEMBL document CHEMBL5042512 (Eur J Med Chem, 2022)
